Molecules are shown by their SMILES.

This passage reports IC50 results from US12509444B2, “Compounds and methods for CD73 modulation and indications therefor” (Plexxikon Inc., priority 2019, dated 2025).

In one experiment the target is T1, human CD73 (Homo sapiens, UniProt P21589).
T1 construct: expressed in transfected cells
T1 sequence (P21589 27-549): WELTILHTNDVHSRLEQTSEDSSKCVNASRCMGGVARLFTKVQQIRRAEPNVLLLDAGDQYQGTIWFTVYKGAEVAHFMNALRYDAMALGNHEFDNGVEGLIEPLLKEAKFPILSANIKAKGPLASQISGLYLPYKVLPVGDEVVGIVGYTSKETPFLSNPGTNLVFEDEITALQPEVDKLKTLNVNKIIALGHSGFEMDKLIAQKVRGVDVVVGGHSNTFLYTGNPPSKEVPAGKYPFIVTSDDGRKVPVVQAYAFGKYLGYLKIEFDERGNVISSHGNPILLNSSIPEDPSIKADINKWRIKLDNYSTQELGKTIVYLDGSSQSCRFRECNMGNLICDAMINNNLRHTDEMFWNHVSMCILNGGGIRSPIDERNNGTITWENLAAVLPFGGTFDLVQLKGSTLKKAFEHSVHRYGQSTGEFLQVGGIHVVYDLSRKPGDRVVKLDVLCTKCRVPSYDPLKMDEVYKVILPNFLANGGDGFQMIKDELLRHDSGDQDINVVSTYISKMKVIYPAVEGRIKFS
In words: Inhibitor activity against CD73 in cell based assay (CD73 expressing CHO-K1 cells). Particulars: CHO-K1 cells expressing human CD73, 150 μM AMP, 4 hours of incubation; read-out: CHO-K1 CELL VARIANT: CD73 IC50. In outline: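 Stably transfected CHO-K1 cells expressing human CD73 (1×10^4/well) incubated 4 h with compound (8-point 1:3 titration, top 10 μM final, 0.2% DMSO) and 150 μM AMP. Residual AMP in supernatant measured by CellTiter-Glo luminescence with 1 μM ATP after 30 min at room temperature; IC50 by nonlinear regression of percent inhibition vs high/low controls.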

Experiment [1] has as its target T2, Human CD73 (amino acid residues 27-549) (Homo sapiens, UniProt P21589).
T2 construct: Human CD73 (amino acid residues 27-549); His tag (N); made in house; host or cells: E. coli
T2 sequence (P21589 27-549): T1 sequence (P21589 27-549)
In words: CD73 enzymatic assay (luciferase-based indirect assay, CellTiter-Glo). Particulars: 0.4 nM CD73, 150 μM AMP, 1 hour at room temperature. In kind it is biochemical. In outline: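 His-tagged human CD73 (27-549) from E. coli, 0.4 nM, with 150 μM AMP in 50 mM HEPES pH 7.4, 0.01% Tween 20; 1 h at room temperature. AMP remaining read by CellTiter-Glo 2.0 luminescence with 1 μM final ATP after 30 min. IC50 from nonlinear regression of % inhibition.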
On the technique in general: In ATP-based viability assays light output follows the ATP content of the culture.

The term IC50 denotes the concentration that gives 50% inhibition. Turning to `O=C(N[C@@H]1CCC[C@H]1O)O[C@@H]1CCN(c2cn[nH]c(=O)c2Cl)C1` [P-0384, (R)-1-(5-chloro-6-oxo-1,6-dihydropyridazin-4-yl)pyrrolidin-3-yl ((1R,2R)-2-hydroxycyclopentyl)carbamate], the 50% inhibitory concentration (IC50) (at human CD73; in experiment [1]) was 0.001 to 10 µM throughout.

With `O=C(NC1CC2CC2C1)O[C@@H]1CCN(c2cn[nH]c(=O)c2Cl)C1` (stereo partly drawn) [P-0385, (R)-1-(5-chloro-6-oxo-1,6-dihydropyridazin-4-yl)pyrrolidin-3-yl bicyclo[3.1.0]hexan-3-ylcarbamate], the 50% inhibitory concentration (IC50) (on human CD73; in experiment [1]) was 0.001 to 10 µM in each case.

`O=C(NC1CCCC1(F)F)O[C@@H]1CCN(c2cn[nH]c(=O)c2Cl)C1` (stereo partly drawn) [P-0386, (R)-1-(5-chloro-6-oxo-1,6-dihydropyridazin-4-yl)pyrrolidin-3-yl (2,2-difluorocyclopentyl)carbamate]: the IC50 (at human CD73; in experiment [1]) was 0.001 to 10 µM in each case.

`CC1(C)CCC(NC(=O)O[C@@H]2CCN(c3cn[nH]c(=O)c3Cl)C2)C1` (stereo partly drawn) [P-0387, (R)-1-(5-chloro-6-oxo-1,6-dihydropyridazin-4-yl)pyrrolidin-3-yl (3,3-dimethylcyclopentyl)carbamate]: the IC50 (at human CD73; in experiment [1]) was 0.001 to 10 µM in each case.

With `O=C(NC1CCN(C(=O)Nc2ccccc2C(F)(F)F)CC1)O[C@@H]1CCN(c2cn[nH]c(=O)c2Cl)C1` [P-0388, (R)-1-(5-chloro-6-oxo-1,6-dihydropyridazin-4-yl)pyrrolidin-3-yl (1-((2-(trifluoromethyl)phenyl)carbamoyl)piperidin-4-yl) carbamate], the IC50 (on human CD73; in experiment [1]) was 0.001 to 10 µM throughout.

As to `O=C(NC1CCN(C(=O)Nc2ccc(C(F)(F)F)cc2)CC1)O[C@@H]1CCN(c2cn[nH]c(=O)c2Cl)C1` [P-0389, (R)-1-(5-chloro-6-oxo-1,6-dihydropyridazin-4-yl)pyrrolidin-3-yl (1-((4-(trifluoromethyl)phenyl)carbamoyl)piperidin-4-yl) carbamate], the half-maximal inhibitory concentration (IC50) (on human CD73; in experiment [1]) was 0.001 to 10 µM each time.

For the compound `O=C(NC1CCN(C(=O)Nc2ccccc2F)CC1)O[C@@H]1CCN(c2cn[nH]c(=O)c2Cl)C1` [P-0390, (R)-1-(5-chloro-6-oxo-1,6-dihydropyridazin-4-yl)pyrrolidin-3-yl (1-((2-fluorophenyl)carbamoyl)piperidin-4-yl)carbamate], the 50% inhibitory concentration (IC50) (on human CD73; in experiment [1]) was 0.001 to 10 µM throughout.

Consider `O=C(NC1CCN(C(=O)Nc2cccc(F)c2)CC1)O[C@@H]1CCN(c2cn[nH]c(=O)c2Cl)C1` [P-0391, (R)-1-(5-chloro-6-oxo-1,6-dihydropyridazin-4-yl)pyrrolidin-3-yl (1-((3-fluorophenyl)carbamoyl)piperidin-4-yl)carbamate], for which the 50% inhibitory concentration (IC50) (at human CD73; in experiment [1]) was 0.001 to 10 µM in each case.

Turning to `O=C(NC1CCCC1)O[C@@H]1CCN(c2cnn(CCO)c(=O)c2Cl)C1` [P-0392, (R)-1-(5-chloro-1-(2-hydroxyethyl)-6-oxo-1,6-dihydropyridazin-4-yl)pyrrolidin-3-yl cyclopentylcarbamate], the IC50 (at human CD73; in experiment [1]) was 0.001 to 10 µM in each case.

`O=C(N[C@H]1CC[C@H](NS(=O)(=O)c2cnn(C3CCCC3)c2)CC1)O[C@@H]1CCN(c2cn[nH]c(=O)c2Cl)C1` [P-0393, (R)-1-(5-chloro-6-oxo-1,6-dihydropyridazin-4-yl)pyrrolidin-3-yl ((1r,4R)-4-((1-cyclopentyl-1H-pyrazole)-4-sulfonamido)cyclohexyl) carbamate]: the IC50 (on human CD73; in experiment [1]) was 0.001 to 10 µM throughout.

Turning to `CN([C@H]1CC[C@H](NC(=O)O[C@@H]2CCN(c3cn[nH]c(=O)c3Cl)C2)CC1)S(C)(=O)=O` [P-0394, (R)-1-(5-chloro-6-oxo-1,6-dihydropyridazin-4-yl)pyrrolidin-3-yl ((1r,4R)-4-(N-methylmethylsulfonamido)cyclohexyl)carbamate], the IC50 (on human CD73; in experiment [1]) was 0.001 to 10 µM in each case.

On to `N#Cc1c(N2CC[C@@H](OC(=O)NC3CCCC3)C2)cn[nH]c1=O` [P-0395, (R)-1-(5-cyano-6-oxo-1,6-dihydropyridazin-4-yl)pyrrolidin-3-yl cyclopentylcarbamate], for which the IC50 (at human CD73; in experiment [1]) was 0.001 to 10 µM throughout.

Turning to `CCn1cc(S(=O)(=O)N[C@H]2CC[C@H](NC(=O)O[C@@H]3CCN(c4cn[nH]c(=O)c4Cl)C3)CC2)cn1` [P-0396, (R)-1-(5-chloro-6-oxo-1,6-dihydropyridazin-4-yl)pyrrolidin-3-yl ((1r,4R)-4-((1-ethyl-1H-pyrazole)-4-sulfonamido)cyclohexyl) carbamate], the IC50 (at human CD73; in experiment [1]) was 0.001 to 10 µM each time.

For the compound `O=C(NC1CCCC1)O[C@@H]1CCN(c2cnn(CC(O)CO)c(=O)c2Cl)C1` (stereo partly drawn) [P-0397, (3R)-1-(5-chloro-1-(2,3-dihydroxypropyl)-6-oxo-1,6-dihydropyridazin-4-yl)pyrrolidin-3-yl cyclopentylcarbamate], the half-inhibitory concentration (IC50) (on human CD73; in experiment [1]) was 0.001 to 10 µM each time.

With `O=C(NC1CC1)N[C@H]1CC[C@@H](NC(=O)O[C@@H]2CCN(c3cnn(CCO)c(=O)c3Cl)C2)CC1` [P-0398, (R)-1-(5-chloro-1-(2-hydroxyethyl)-6-oxo-1,6-dihydropyridazin-4-yl)pyrrolidin-3-yl ((1s,4S)-4-(3-cyclopropylureido)cyclohexyl) carbamate], the IC50 (at human CD73; in experiment [1]) was 0.001 to 10 µM in each case.

For `C[C@H](O)C(=O)N1CCC(NC(=O)O[C@@H]2CCN(c3cn[nH]c(=O)c3Cl)C2)CC1` [P-0399, (R)-1-(5-chloro-6-oxo-1,6-dihydropyridazin-4-yl)pyrrolidin-3-yl (1-((S)-2-hydroxypropanoyl)piperidin-4-yl)carbamate], the IC50 (on human CD73; in experiment [1]) was 0.001 to 10 µM in each case.

Regarding `C[C@@H](O)C(=O)N1CCC(NC(=O)O[C@@H]2CCN(c3cn[nH]c(=O)c3Cl)C2)CC1` [P-0400, (R)-1-(5-chloro-6-oxo-1,6-dihydropyridazin-4-yl)pyrrolidin-3-yl (1-((R)-2-hydroxypropanoyl)piperidin-4-yl)carbamate], the half-inhibitory concentration (IC50) (on human CD73; in experiment [1]) was 0.001 to 10 µM in each case.

Take `O=C(NC1CCN(C(=O)C2CCCO2)CC1)O[C@@H]1CCN(c2cn[nH]c(=O)c2Cl)C1` (stereo partly drawn) [P-0401, (R)-1-(5-chloro-6-oxo-1,6-dihydropyridazin-4-yl)pyrrolidin-3-yl (1-(tetrahydrofuran-2-carbonyl)piperidin-4-yl)carbamate]: the half-inhibitory concentration (IC50) (on human CD73; in experiment [1]) was 0.001 to 10 µM each time.

In the case of `O=C(NC1CCN(C(=O)c2ccccc2F)CC1)O[C@@H]1CCN(c2cn[nH]c(=O)c2Cl)C1` [P-0402, (R)-1-(5-chloro-6-oxo-1,6-dihydropyridazin-4-yl)pyrrolidin-3-yl (1-(2-fluorobenzoyl)piperidin-4-yl)carbamate], the concentration for half-maximal inhibition (IC50) (on human CD73; in experiment [1]) was 0.001 to 10 µM each time.

As for `O=C(NC1CCN(C(=O)c2ccccc2C(F)(F)F)CC1)O[C@@H]1CCN(c2cn[nH]c(=O)c2Cl)C1` [P-0403, (R)-1-(5-chloro-6-oxo-1,6-dihydropyridazin-4-yl)pyrrolidin-3-yl (1-(2-(trifluoromethyl)benzoyl)piperidin-4-yl)carbamate], the IC50 (at human CD73; in experiment [1]) was 0.001 to 10 µM in each case.
